# Data published in article PMC11024197 (Nature Communications, 2024).
# Where two headings read alike, the source gives them in different places.
# Experiments:
# PEX14 NTD [1] = biological target: T1, PEX14 NTD (Homo sapiens, UniProt O75381); design: method as in values quoted from other papers; details: cited from earlier work
# T1 construct: PEX14 NTD (1-104), expressed in E. coli with His6-SUMO tag, cleaved
# PEX14 NTD [2] = biological target: T1, PEX14 NTD; details: SD, n = 3; read-out: KD (µM) (Suppl. Table 2); KD (nM) (Suppl. Table 4)
# Protocol: Isothermal titration calorimetry (ITC) measurements were performed as triplicates at 25 °C using a MicroCal PEAQ-ITC (Malvern Instruments Ltd. U.K) calorimeter. Buffer conditions were 20 mM Tris pH 7.5, 50 mM NaCl. For all titrations a titrant dilution control experiment was performed and subtracted before the data were fitted to a one-site binding model using the Malvern Analysis software.
# PEX13 SH3 at a concentration of 35-48 µM was titrated with purchased 15mer peptides containing (di)aromatic penta peptides from PEX5 or PEX5 1-76 (W0) at concentration of 0.7-0.6 mM and PEX13 350-403 (FxxxF) at a concentration of 0.9-1 mM. […] The concentration of PEX14 was corrected with the fit, since it cannot be accurate measured at 280 nm owing to the extinction coefficient of only 1490.
# T1 sequence (O75381 1-104): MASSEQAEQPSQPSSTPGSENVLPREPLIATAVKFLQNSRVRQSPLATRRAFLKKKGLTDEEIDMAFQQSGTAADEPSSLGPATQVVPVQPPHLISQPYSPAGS
Substance,Kd (PEX14 NTD [1]) [µM],Kd (PEX14 NTD [2]) [µM]
PEX19 FxxxF motif (66-77 SQEKFFQELFDS in Fig. 3b; exact ligand of cited work not printed),9.2,–
PEX5 1-76 (contains […]) [PEX5 W0],–,0.0551
PEX13 residues 261-403 [PEX13 SH3-CTR],–,5.4
